Results on 18 molecules are retold here after US8754099B2, “Oxadiazole beta carboline derivatives as antidiabetic compounds” (Merck Sharp & Dohme Corp, priority 2010, dated 2014).

Experiment [1] concerns the target T1, human SSTR3 (Homo sapiens (Human), UniProt P32745). As to the kind of experiment: SSTR binding filtration assay (SSTR3). The settings on record: (3-125I-Tyr11)-SRIF-14 radioligand, CHO-K1 membranes; more active isomer. As to the method:
The receptor-ligand binding assays of all 5 subtype of SSTRs were performed with membranes isolated from Chinese hamster ovary (CHO)-K1 cells stably expressing the cloned human somatostatin receptors in 96-well format as previous reported. (Yang et al. PNAS 95:10836-10841, 1998, Birzin et al. Anal. Biochem. 307:159-166, 2002.) The stable cell lines for SSTR1-SSTR5 were developed by stably transfecting with DNA for all five SSTRs using Lipofectamine. Neomycin-resistant clones were selected and maintained in medium containing 400 μg/mL G418 (Rohrer et al. Science 282:737-740, 1998).
Binding assays were performed using (3-^125I-Tyr11)-SRIF-14 as the radioligand (used at 0.1 nM) and The Packard Unifilter assay plate. The assay buffer consisted of 50 mM TrisHCl (pH 7.8) with 1 mM EGTA, 5 mM MgCl2, leupeptin (10 μg/mL), pepstatin (10 μg/mL), bacitracin (200 μg/mL), and aprotinin (0.5 μg/mL). CHO-K1 cell membranes, radiolabeled somatostatin, and unlabeled test compounds were resuspended or diluted in this assay buffer. Unlabeled test compounds were examined over a range of concentrations from 0.01 nM to 10,000 nM. The Ki values for compounds were determined as described by Cheng and Prusoff Biochem Pharmacol. 22:3099-3108 (1973).

Experiment [2] addresses T1, human SSTR3. As to the kind of experiment: SSTR3 functional antagonist assay (cAMP, FSK + SS-14, CHO cells). The experiment is classed as cell-based. To be noted: 3.5 μM FSK + 100 nM SS-14; more active isomer. The method, then: The effects of compounds that bind to human and murine SSTR3 with various affinities on the functional activity of the receptor were assessed by measuring cAMP production in the presence of Forskolin (FSK) along or FSK plus SS-14 in SSTR3 expressing CHO cells. FSK acts to induce cAMP production in these cells by activating adenylate cyclases, whereas SS-14 suppresses cAMP production in the SSTR3 stable cells by binding to SSTR3 and the subsequent inhibition of adenylate cyclases via an alpha subunit of GTP-binding protein (Gαi).
To measure the antagonism activity of the compounds, we pre-incubated the human or mouse SSTR3 stable CHO cells with the compounds for 15 rain, followed by a one-hour incubation of the cells with a mixture of 3.5 μM FSK+100 nM SS-14 (in the continuous presence of the compounds). The amount of cAMP produced during the incubation was also quantified with the Lance cAMP assay. The antagonism activity of each compound was reflected both by % Inhibition (its maximum ability to block the action of SS-14) and an EC50 value which is the concentration of the test compound required to suppress the effect of 100 nM SS-14 by 50%. The % Inhibition of each compound was calculated using the following formula: % Inhibition=[1−(unknown cAMP/FSK+SS-14 cAMP)]×100

For experiment [3], the target named is hERG potassium ion channel (Homo sapiens (Human), UniProt Q12809). The experiment is described as follows: MK-499 binding. To be noted: more active isomer.
The target of experiment [4] is T1, human SSTR3. As to the kind of experiment: SSTR3 binding Scintillation Proximity Assay (SPA). To be noted: 125I-SS14 radioligand, CHO-K1 membranes; more active isomer. The method, then:
The receptor-ligand binding Scintillation Proximity Assay (SPA) (N. D. Cook. Drug Discovery Today 1 (1996), pp. 287-294) for SSTR3 was performed with membranes isolated from Chinese hamster ovary (CHO)-K1 cells stably expressing the cloned human somatostatin receptors. Binding assays were performed in 384 well format using ^125I-SS14 as the radioligand for SSTR3. The assay buffer consisted of 50 mM TrisHCl (pH 7.8) with 1 mM EGTA, 5 mM MgCl2, leupeptin (10 μg/mL), pepstatin (10 μg/mL), bacitracin (200 μg/mL), and aprotinin (0.5 μg/mL). CHO-K1 cell membranes were prebound to SPA beads and incubated with unlabelled test compounds and radiolabeled somatostatin in assay buffer. After 5 hours at room temperature, cpm/well was determined. Test compounds were examined in 10 point titrations over a range of concentrations from 0.00001 nM to 1200 nM. Percent inhibition was determined for each data point using binding in the presence of DMSO as the maximum achievable value. The results were plotted using 4 parameter fit and the inflection point reflecting 50% of the maximum inhibition was reported as the IC50.

hERG potassium ion channel, sequence (Q12809 whole entry): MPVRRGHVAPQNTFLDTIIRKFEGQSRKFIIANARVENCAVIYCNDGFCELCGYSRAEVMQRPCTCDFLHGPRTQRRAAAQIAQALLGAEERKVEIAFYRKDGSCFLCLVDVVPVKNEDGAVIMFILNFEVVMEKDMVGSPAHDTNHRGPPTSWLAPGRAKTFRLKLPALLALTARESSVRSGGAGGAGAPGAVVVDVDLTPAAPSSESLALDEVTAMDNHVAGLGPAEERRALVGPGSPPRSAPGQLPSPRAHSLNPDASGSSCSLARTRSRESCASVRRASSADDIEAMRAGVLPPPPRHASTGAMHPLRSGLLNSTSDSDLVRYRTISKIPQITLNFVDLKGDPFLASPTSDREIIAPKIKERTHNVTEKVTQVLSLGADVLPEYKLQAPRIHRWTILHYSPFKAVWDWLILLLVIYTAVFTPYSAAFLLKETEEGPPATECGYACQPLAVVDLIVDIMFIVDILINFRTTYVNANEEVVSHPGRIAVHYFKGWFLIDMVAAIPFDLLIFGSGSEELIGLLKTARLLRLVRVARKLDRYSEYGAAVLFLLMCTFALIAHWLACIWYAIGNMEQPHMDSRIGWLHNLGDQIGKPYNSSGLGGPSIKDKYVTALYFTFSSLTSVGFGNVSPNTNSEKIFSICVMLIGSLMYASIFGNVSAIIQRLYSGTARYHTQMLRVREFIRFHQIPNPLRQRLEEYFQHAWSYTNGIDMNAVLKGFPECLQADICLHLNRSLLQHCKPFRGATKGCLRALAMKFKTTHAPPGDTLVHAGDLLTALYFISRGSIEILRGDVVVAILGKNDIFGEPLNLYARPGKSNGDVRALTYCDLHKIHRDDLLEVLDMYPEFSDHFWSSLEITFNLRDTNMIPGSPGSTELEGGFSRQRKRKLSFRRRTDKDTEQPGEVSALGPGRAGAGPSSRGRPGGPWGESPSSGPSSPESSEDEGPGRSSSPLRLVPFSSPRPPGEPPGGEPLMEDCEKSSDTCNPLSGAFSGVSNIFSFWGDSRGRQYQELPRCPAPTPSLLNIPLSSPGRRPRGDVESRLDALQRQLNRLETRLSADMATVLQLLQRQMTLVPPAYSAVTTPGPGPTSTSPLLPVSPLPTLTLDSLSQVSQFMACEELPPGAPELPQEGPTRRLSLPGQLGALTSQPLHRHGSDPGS
T1 sequence (P32745 whole entry): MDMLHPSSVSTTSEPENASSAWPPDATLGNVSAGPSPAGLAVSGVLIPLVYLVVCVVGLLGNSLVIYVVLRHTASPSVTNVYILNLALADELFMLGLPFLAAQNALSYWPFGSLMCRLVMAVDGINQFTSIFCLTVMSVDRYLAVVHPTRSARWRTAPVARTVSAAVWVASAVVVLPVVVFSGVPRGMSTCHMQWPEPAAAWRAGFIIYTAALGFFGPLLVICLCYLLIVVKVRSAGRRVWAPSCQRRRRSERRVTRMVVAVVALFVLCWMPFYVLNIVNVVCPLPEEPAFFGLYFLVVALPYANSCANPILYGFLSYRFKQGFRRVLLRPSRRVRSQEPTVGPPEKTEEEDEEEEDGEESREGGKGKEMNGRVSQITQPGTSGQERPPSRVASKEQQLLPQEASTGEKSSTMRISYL

For `COCCOCC1(c2nnc(C(C)C)o2)N[C@@H](c2nc(-c3ccc(F)c(C)n3)c[nH]2)Cc2c1[nH]c1ccccc21` (stereo partly shown) [Example 15], affinity on human SSTR3 [1] was put at a Ki of 0.4 nM. Further, at human SSTR3 [2], the EC50 (commonly the concentration needed to bring the measured effect to its halfway point) was found to be 0.6 nM. For the same molecule, in experiment [3], the half-maximal inhibitory concentration (IC50) (as a rule, the point on the concentration scale where inhibition reaches its midpoint) was found to be 19200 nM.

Regarding `Cc1nnc(C2(C3CCCO3)N[C@@H](c3nc(-c4ccc(F)c(C)n4)c[nH]3)Cc3c2[nH]c2ccccc32)o1` (stereo partly shown) [Example 20], affinity at human SSTR3 [1] was put at a Ki of 0.9 nM. Besides, the IC50 on human SSTR3 [4] was found to be 4.6 nM; in experiment [3] it was 17000 nM. In addition, the half-maximal effective concentration (EC50) on human SSTR3 [2] was 4 nM.

Turning to `CCOCC1(c2nnc(CCOC)o2)N[C@@H](c2nc(-c3ccc(F)cn3)c[nH]2)Cc2c1[nH]c1ccccc21` (stereo partly shown) [Example 5], the Ki – broadly, a measure of affinity in units of concentration, obtained from inhibition or displacement – on human SSTR3 [1] worked out at 2.7 nM. On human SSTR3 [2], the EC50 amounted to 3.5 nM. This molecule had an IC50 in experiment [3] of 16500 nM.

For `CCOCC1(c2nnc(C(C)(C)C)o2)N[C@@H](c2nc(-c3ccc(F)cn3)c[nH]2)Cc2c1[nH]c1ccccc21` (stereo partly shown) [Example 6], the Ki at human SSTR3 [1] is 2.6 nM. Moreover, on human SSTR3 [2], the EC50 is 2.5 nM. In addition, the IC50 in experiment [3] came out at 17900 nM.

In the case of `Cc1nc(-c2c[nH]c([C@H]3Cc4c([nH]c5ccccc45)C(c4nnc(C(C)C)o4)(C4CCOCC4)N3)n2)ccc1F` (stereo partly shown) [Example 19], the affinity on human SSTR3 [1], expressed as Ki, was 0.6 nM. Also, the concentration for a half-maximal effect (EC50) at human SSTR3 [2] was found to be 0.7 nM. For the same molecule, the IC50 in experiment [3] was 16000 nM.

On human SSTR3 [1], `COCCOCC1(c2nnc(C(C)(C)C)o2)N[C@@H](c2nc(-c3ccc(F)cn3)c[nH]2)Cc2c1[nH]c1ccccc21` (stereo partly shown) [Example 8] returned an inhibition constant (Ki) of 1.4 nM. The EC50 on human SSTR3 [2] was 3.7 nM. The molecule further displayed a concentration for half-maximal inhibition (IC50) in experiment [3] of 19700 nM.

Take `COC1CC(C2(c3nnc(C)o3)N[C@@H](c3nc(-c4ccc(F)c(C)n4)c[nH]3)Cc3c2[nH]c2ccccc32)C1` (stereo partly shown) [Example 17]: the affinity at human SSTR3 [1], expressed as Ki, was 1.8 nM. Further, the EC50 at human SSTR3 [2] stood at 1.7 nM. This molecule yielded a concentration for half-maximal inhibition (IC50) in experiment [3] of 21600 nM.

With `[2H]C([2H])([2H])COCC1(c2nnc(C)o2)N[C@@H](c2nc(-c3ccc(F)c(C)n3)c[nH]2)Cc2c1[nH]c1ccccc21` (stereo partly shown) [Example 16], at human SSTR3 [1], the inhibition constant Ki was 0.6 nM. Moreover, the EC50 at human SSTR3 [2] was determined as 8.5 nM. The 50% inhibitory concentration (IC50) in experiment [3] was determined as 22300 nM.

For the molecule `COCCOCC1(c2nnc(C3CCOCC3)o2)N[C@@H](c2nc(-c3ccc(F)c(C)n3)c[nH]2)Cc2c1[nH]c1ccccc21` (stereo partly shown) [Example 13], the Ki at human SSTR3 [1] is 0.5 nM. For the same molecule, the EC50 at human SSTR3 [2] stood at 0.5 nM. The half-maximal inhibitory concentration (IC50) in experiment [3] is 19600 nM.

For the molecule `Cc1nnc(C2(C3CCCCO3)N[C@@H](c3nc(-c4ccc(F)c(C)n4)c[nH]3)Cc3c2[nH]c2ccccc32)o1` (stereo partly shown) [Example 21], the IC50 on human SSTR3 [4] turned out to be 1.7 nM; in experiment [3], 14600 nM. For the same molecule, the concentration for a half-maximal effect (EC50) at human SSTR3 [2] turned out to be 3.1 nM.

As for `COCCOCC1(c2nnc(C)o2)N[C@@H](c2nc(-c3ccc(F)c(C)n3)c[nH]2)Cc2c1[nH]c1ccccc21` (stereo partly shown) [Example 12], the affinity at human SSTR3 [1], expressed as Ki, was 0.4 nM. In addition, the half-maximal effective concentration (EC50) at human SSTR3 [2] came out at 1 nM. In addition, the IC50 in experiment [3] is 27700 nM.

`CCOCC1(c2nnc(C3(C)CCCO3)o2)N[C@@H](c2nc(-c3ccc(F)c(C)n3)c[nH]2)Cc2c1[nH]c1ccccc21` (stereo partly shown) [Example 11] came in with a Ki at human SSTR3 [1] of 0.5 nM. In addition, the EC50 at human SSTR3 [2] was 0.7 nM. Besides, in experiment [3], the concentration for half-maximal inhibition (IC50) was 19200 nM.

At human SSTR3 [1], `CCOCC1(c2nnc(C(C)C)o2)N[C@@H](c2nc(-c3ccc(F)cn3)c[nH]2)Cc2c1[nH]c1ccccc21` (stereo partly shown) [Example 9] yielded an inhibition constant Ki of 2.5 nM. Also, the EC50 on human SSTR3 [2] stood at 5.1 nM. Also, the IC50 in experiment [3] came out at 20200 nM.

The molecule `COCCOCC1(c2nnc(C3CCOCC3)o2)N[C@@H](c2nc(-c3ccc(F)cn3)c[nH]2)Cc2c1[nH]c1ccccc21` (stereo partly shown) [Example 10] yielded an inhibition constant Ki at human SSTR3 [1] of 2.7 nM. Besides, the half-maximal effective concentration (EC50) at human SSTR3 [2] came out at 2.4 nM. The same molecule had a half-inhibitory concentration (IC50) in experiment [3] of 23400 nM.

`CCOCC1(c2nnc(CCOC)o2)N[C@@H](c2nc(-c3ccc(F)c(C)n3)c[nH]2)Cc2c1[nH]c1ccccc21` (stereo partly shown) [Example 7] showed an inhibitory constant (Ki) at human SSTR3 [1] of 0.9 nM. In addition, the half-maximal effective concentration (EC50) at human SSTR3 [2] was found to be 0.9 nM. Besides, the IC50 in experiment [3] was determined as 23200 nM.

On to `COC1CCC(C2(c3nnc(C)o3)NC(c3nc(-c4ccc(F)c(C)n4)c[nH]3)Cc3c2[nH]c2ccccc32)CC1` (stereo not shown) [Example 18], for which the Ki on human SSTR3 [1] was determined as 0.3 nM. Moreover, the EC50 on human SSTR3 [2] was found to be 0.6 nM. The IC50 in experiment [3] stood at 17500 nM.

For `CCOCC1(c2nnc(C(C)C)o2)N[C@@H](c2nc(-c3ccc(F)c(C)n3)c[nH]2)Cc2c1[nH]c1ccccc21` (stereo partly shown) [Example 14], on human SSTR3 [1], the inhibition constant Ki worked out at 0.4 nM. Besides, the 50% effective concentration (EC50) on human SSTR3 [2] was 1.3 nM. This molecule displayed an IC50 in experiment [3] of 18600 nM.

Consider `[2H]C([2H])([2H])OC1CC2C(C1)C2C1(c2nnc(C)o2)N[C@@H](c2nc(-c3ccc(F)c(C)n3)c[nH]2)Cc2c1[nH]c1ccccc21` (stereo partly shown) [Example 22], for which the IC50 at human SSTR3 [4] amounted to 1.2 nM; in experiment [3], 22800 nM. The EC50 at human SSTR3 [2] is 1.57 nM.
